Laboratory results as given in US12447135B2 (University of South Florida, priority 2021, dated 2025).

Tests used:
SK-N-SH cells [1] = test: Aβ accumulation in SK-N-SH cells (western blot); type: cell-based, human; settings: vs Aβ-only treated controls, FFAR2 dependent
Description: (§1) To determine the FFAR2 signal activating property of selected compounds, SK-N-SH cells were treated with 10 μM of shortlisted compounds for 30 min at 37° C. and harvested for total protein extraction. Cells were harvested after 30 min of incubation because ERK1/2 phosphorylation upon FFAR2 activation is a quick event (Jiao et al., 2002; Bhattacharjee et al., 2010). Total protein from the cells was extracted using a lysis buffer [consisting of 10 mmol/L Tris (pH 7.6), 150 mmol/L NaCl, 10 mmol/L Sodium orthovanadate, 10 mmol/L Sodium Pyrophosphate, 100 mmol/L Sodium fluoride, 1 mmol/L EDTA, 1 mmol/L EGTA, 1% Triton X-100, 0.5% NP-40 and a cocktail of protease inhibitors (Roche); Yadav et al., 2011, 2017; Ahmadi et al., 2019, 2020a]. After sonication, cell extracts were centrifuged at 8,000×g for 10 min at 4° C., and the supernatant was separated in a fresh tube. The total protein concentration of the supernatant was measured using a BCA protein assay kit. […] Band densities were also quantified using NIH ImageJ software. β-actin was used as an internal control.

C. elegans CL4176 = test: Paralysis assay in C. elegans CL4176; type: in vivo; settings: CL4176 worms, 10 μM, vs non-treated controls
Description: For paralysis assays, synchronized eggs of CL4176 were kept at 16° C. for 48 h, and the worms were transferred onto NGM plates. […] Counting was performed at 2 h intervals, typically after 14 h, at 23° C., and until the last worm became paralyzed. […] Each C. elegans experiment was conducted with at least 100 worms.

proteasome [2] = test: Proteasome activity assay in SK-N-SH cells; type: cell-based, human
Description: (§2) The CL2006 strain, SK-N-SH cells, and brain tissues were sonicated in a lysis buffer (150 mM NaCl, 50 mM HEPES, 2 mM DTT, 20 mM NaF, 5 mM EDTA, 2.5 mM sodium pyrophosphate, 1 mM sodium orthovanadate, and 1 mM α-glycerophosphoric acid) and then centrifuged at 15,000 g at 4° C. for 15 min. Total protein was assayed using BCA kit and 20 μg protein was mixed with 140 μM suc-leu-leu-val-tyr-7-amino-4-methylcou-marin (AMC) in a proteasome activity assay buffer (150 mM NaCl, 50 mM HEPES [pH 7.4], 5 mM ATP, and 5 mM EDTA), and then the fluorescence (excitation 380 nm and emission 460 nm) was measured every 10 min over 3 h using a microplate reader. The assay was performed with and without the proteasome inhibitor MG132 (10 μM).

SK-N-SH cells [3] = test: Total protein ubiquitination, western blot (P4D1); type: cell-based, human
Description: as §1

proteasome [4] = test: Proteasome activity assay in brain of APP/PS1 mice; type: in vivo; settings: 80 mg/kg daily oral gavage, 3 months
Description: Brains were collected and immediately homogenized in proteasome lysis buffer and proteasome activity was measured as described below. All the animal procedures and experiments were approved by the institutional animal care and use committee (IACUC) of the Wake Forest School of Medicine and the University of South Florida.
as §2

SK-N-SH cells [5] = test: Lysosome activity in SK-N-SH cells; type: cell-based, human; settings: 10 μM, vs controls
Description: Bafilomycin was used as an inhibitor of cellular autophagy/lysosomal activity. The lysosomal activity was assayed using the Enz@ lysozyme assay kit (E-22013, Molecular Probes) and the fluorescence was measured in a fluorescence microplate reader using excitation and emission wavelengths of 494 nm and 518 nm, respectively (Biotek Instruments, VT, USA).

FFAR2 signaling [6] = test: Western blot of phospho-ERK1/2 in SK-N-SH cells (FFAR2 signal activation); type: cell-based, human; settings: 10 μM, 30 min
Description: To determine the FFAR2 signal activating property of selected compounds, SK-N-SH cells were treated with 10 μM of shortlisted compounds for 30 min at 37° C. and harvested for total protein extraction. […] After sonication, cell extracts were centrifuged at 8,000×g for 10 min at 4° C., and the supernatant was separated in a fresh tube. The total protein concentration of the supernatant was measured using a BCA protein assay kit. An equal amount of total protein (45 μg) from each sample was dissolved in loading buffer and loaded in 4% stacking gel and 10% separating SDS-PAGE gel and resolved at 100 V. Proteins were transferred on a 0.22 μm PVDF membrane and blots were developed with anti-ERK1/2, anti-phosphoERK1/2, ubiquitin (P4D1), and Aβ (6E10) primary antibodies followed by their secondary antibodies and bands were visualized using the Pierce™ Fast Western Blot Kit, ECL Substrate acquired using Syngene Pxi. Band densities were also quantified using NIH ImageJ software. β-actin was used as an internal control.

proteasome [7] = test: Proteasome activity assay in C. elegans; type: in vivo; settings: C. elegans (CL2006)
Description: as §2

FFAR2 signaling [8] = test: cAMP-Glo assay, forskolin-induced cAMP in SK-N-SH cells; type: cell-based, human; settings: 10 μM compound, 10 μM forskolin
Description: FFAR2 is a Gi/o signaling receptor, which reduces cytosolic cAMP (Falomir-Lockhart et al., 2019). To determine the FFAR2 signaling activating potential of selected compounds, the cAMP-Glo™ Assay was used to measure intracellular cAMP. SK-N-SH cells (1×10^3 cells per well) were plated in a white 96-well plate for 24 h and then treated with 10 μM compounds and 10 μM forskolin (a positive control) dissolved in induction buffer. The cAMP levels were detected using a Luminescence Microplate Reader.

## CC12CCC(C1)C(C)(C)C2O (stereo not shown) [Fenchol]
SK-N-SH cells [1]
  Aβ-accumulation: significantly reduced
C. elegans CL4176
  paralytic attacks: decreased
Proteasome [2]
  proteasomal activity: significantly increased
Proteasome [2]; Fenchol plus Aβ
  proteasome activity in cells also treated with Aβ: higher
SK-N-SH cells [3]
  protein ubiquitinylation: did not change
Proteasome [4]; APP/PS1 mice cortex
  proteasomal activity: significantly increased
Proteasome [4]; APP/PS1 mice hippocampus
  proteasomal activity: significantly increased
SK-N-SH cells [5]
  lysosomal activity: significantly increased
FFAR2 signaling [6]
  descending order of phospho-ERK1/2 levels: Fenchol>Octopamine>Carvamenthenol>Camphene>Pentanone>Synephrine>Leucinamide>Carene>α-Terpineol>Breneol>L-Fenchone>D-Fenchone>Norpseudoephedrine HCl
FFAR2 signaling [6]; vs rest of selected compounds
  levels of phospho-ERK1/2 proteins: highest in Fenchol and comparable to acetate
Proteasome [7]
  proteasomal activity: significantly increased
FFAR2 signaling [8]
  cAMP upon Forskolin-stimulation, ascending order: Fenchol<Carvamenthenol<α-Terpineol<Carene<Pentanone<Octopamine<Camphene
  decrease in cAMP upon Forskolin-stimulation: highest decrease
